US20250382303A1, “NOVEL COMPOUND AS NADPH OXIDASE 2 INHIBITOR AND PHARMACEUTICAL COMPOSITION CONTAINING SAME” (DONGGUK UNIVERSITY INDUSTRY-ACADEMIC COOPERATION FOUNDATION, priority 2022, published 2025)

What was measured:
NOX2 = target: T1, NOX2 (Homo sapiens, UniProt P04839); experiment: NOX2 activity assay: PMA-induced ROS in ATRA-differentiated HL-60 cells (WST-1 or Amplex Red/HRP probe); type: cell-based; details: for IC50: WST-1 probe, differentiated HL-60, 200 ng/mL PMA, read-out: Inhibitory ability (NOX2); for NOX2 inhibitory ability, verbal rating: WST-1, comment on Table 1
T1 construct: Used for the NOX2 activity assay was human leukemia 60 cells (HL-60), which are widely, universally used to assess NOX2 activity; endogenous in cells
T1 sequence (P04839 2-570 limits assumed): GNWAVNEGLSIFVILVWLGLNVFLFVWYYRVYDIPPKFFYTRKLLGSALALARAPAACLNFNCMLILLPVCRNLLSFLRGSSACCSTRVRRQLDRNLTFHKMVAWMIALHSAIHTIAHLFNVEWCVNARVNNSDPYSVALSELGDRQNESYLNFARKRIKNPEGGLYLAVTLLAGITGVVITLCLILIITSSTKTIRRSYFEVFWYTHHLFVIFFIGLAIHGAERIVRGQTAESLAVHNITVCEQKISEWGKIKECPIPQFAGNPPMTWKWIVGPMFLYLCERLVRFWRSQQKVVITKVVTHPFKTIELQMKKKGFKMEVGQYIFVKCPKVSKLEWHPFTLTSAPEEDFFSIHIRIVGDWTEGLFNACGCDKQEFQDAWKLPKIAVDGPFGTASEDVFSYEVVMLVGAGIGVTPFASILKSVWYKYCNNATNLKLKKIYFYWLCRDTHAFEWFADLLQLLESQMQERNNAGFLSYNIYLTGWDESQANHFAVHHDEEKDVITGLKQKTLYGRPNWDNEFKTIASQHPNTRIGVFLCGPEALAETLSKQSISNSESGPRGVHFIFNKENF
T1 sequence (P13498 2-195 partner limits assumed): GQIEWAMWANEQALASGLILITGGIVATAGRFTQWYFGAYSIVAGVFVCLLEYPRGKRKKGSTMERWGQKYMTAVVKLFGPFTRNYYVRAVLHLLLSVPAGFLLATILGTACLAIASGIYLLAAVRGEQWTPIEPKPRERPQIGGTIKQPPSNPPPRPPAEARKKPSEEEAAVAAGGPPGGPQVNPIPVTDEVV
Description: NOX activity was evaluated by measuring the reactive oxygen species (ROS) produced by NOX. The probes that were used to measure ROS were water soluble tetrazolium-1 (WST-1, superoxide-specific colorimetric probe) and Amplex Red/horseradish peroxidase (AR/HRP, hydrogen peroxide-specific fluorometric probe), and the concentration of the probes used was […]. For WST-1, the change in the absorbance at 450 nm was measured, and, for AR, the change in fluorescence signals was measured at 560 nm and 585 nm, respectively for excitation wavelength (Ex) and emission wavelength (Em). The optical signal was measured using the SpectraMax M3 microplate reader from Molecular Devices at 37° C. for 60 minutes.
Used for the NOX2 activity assay was human leukemia 60 cells (HL-60), which are widely, universally used to assess NOX2 activity. 1×10^5 cells/mL of HL-60 were treated with […] all-trans-retinoic acid (ATRA) for 4 days to induce differentiation. Differentiated HL-60 (diff. HL-60) was centrifuged at 200 g for 5 minutes and washed twice with HBSS. Differentiation was induced to reach 3×10^4 cells/well on a 96-well plate (diff). HL-60 was seeded. The test material was treated to cells and left in a 37° C. incubator for 60 minutes. As a control group, the same concentration of DMSO, which is the vehicle of the test material, was used. 200 ng/mL phorbol 12-myristate 13-acetate (PMA) was used as the NOX2 activator, and the production amount of ROS induced by PMA was measured for 60 minutes. […] diphenyleneiodonium (DPI), which is well known to inhibit NOX, was used as a positive control group to evaluate whether the NOX2 activity tester properly operates.

[1] = Non-specific free radical scavenging: superoxide produced by xanthine/xanthine oxidase, measured by WST-1; type: biochemical; details: compound at 10 or 30 μM
Description: The scavenging activity that the effective compound in 10 or 30 μM scavenges the superoxide produced by xanthine/xanthine oxidase was measured by WST-1, the results of which are shown in Table 2.

| IC50 (NOX2) | NOX2 inhibitory ability, verbal rating (NOX2) | SMILES | scavenging of superoxide produced by xanthine/xanthine oxidase [1] |
| --- | --- | --- | --- |
| 1 to 10 µM |  | CC12CC(NC(=O)N1c1cccc(C(=O)N3CCc4ccc(F)cc4C3)c1)c1cc(-c3ccoc3)ccc1O2 (stereo not drawn) [Compound 28a, 3-(3-(7-Fluoro-1,2,3,4-tetrahydroisoquinoline-2-carbonyl)phenyl)-8-(furan-3-yl)-2-methyl-5,6-dihydro-2H-2,6-methanobenzo[g][1,3,5]oxadiazocin-4(3H)-one] |  |
| 1 to 10 µM | excellent inhibitory ability | CC12CC(NC(=O)N1c1cccc(C(=O)N3CCc4cc(F)ccc4C3)c1)c1cc(-c3ccoc3)ccc1O2 (stereo not drawn) [Compound 28b, 3-(3-(6-Fluoro-1,2,3,4-tetrahydroisoquinoline-2-carbonyl)phenyl)-8-(furan-3-yl)-2-methyl-5,6-dihydro-2H-2,6-methanobenzo[g][1,3,5]oxadiazocin-4(3H)-one] |  |
| > 10 µM | excellent inhibitory ability | CC12CC(NC(=O)N1c1cccc(C(=O)N3CCc4cccc(F)c4C3)c1)c1cc(-c3ccoc3)ccc1O2 (stereo not drawn) [Compound 28c, 3-(3-(8-Fluoro-1,2,3,4-tetrahydroisoquinoline-2-carbonyl)phenyl)-8-(furan-3-yl)-2-methyl-5,6-dihydro-2H-2,6-methanobenzo[g][1,3,5]oxadiazocin-4(3H)-one] |  |
| > 10 µM | excellent inhibitory ability | CC12CC(NC(=O)N1c1cccc(C(=O)N3CCc4c(F)cccc4C3)c1)c1cc(-c3ccoc3)ccc1O2 (stereo not drawn) [Compound 28d, 3-(3-(5-Fluoro-1,2,3,4-tetrahydroisoquinoline-2-carbonyl)phenyl)-8-(furan-3-yl)-2-methyl-5,6-dihydro-2H-2,6-methanobenzo[g][1,3,5]oxadiazocin-4(3H)-one] |  |
| 1 to 10 µM |  | CC12CC(NC(=O)N1c1cccc(C(=O)N3CCc4c(cccc4C(F)(F)F)C3)c1)c1cc(-c3ccoc3)ccc1O2 (stereo not drawn) [Compound 28e, 8-(Furan-3-yl)-2-methyl-3-(3-(5-(trifluoromethyl)-1,2,3,4-tetrahydroisoquinoline-2-carbonyl)phenyl)-5,6-dihydro-2H-2,6-methanobenzo[g][1,3,5]oxadiazocin-4(3H)-one] |  |
| > 10 µM |  | CC12CC(NC(=O)N1c1cccc(C(=O)N3CCc4ccc(C(F)(F)F)cc4C3)c1)c1cc(-c3ccoc3)ccc1O2 (stereo not drawn) [Compound 28f, 8-(Furan-3-yl)-2-methyl-3-(3-(7-(trifluoromethyl)-1,2,3,4-tetrahydroisoquinoline-2-carbonyl)phenyl)-5,6-dihydro-2H-2,6-methanobenzo[g][1,3,5]oxadiazocin-4(3H)-one] |  |
| > 10 µM |  | CC12CC(NC(=O)N1c1cccc(C(=O)N3CCc4cccc(C(F)(F)F)c4C3)c1)c1cc(-c3ccoc3)ccc1O2 (stereo not drawn) [Compound 28g, 8-(Furan-3-yl)-2-methyl-3-(3-(8-(trifluoromethyl)-1,2,3,4-tetrahydroisoquinoline-2-carbonyl)phenyl)-5,6-dihydro-2H-2,6-methanobenzo[g][1,3,5]oxadiazocin-4(3H)-one] |  |
| > 10 µM |  | CC12CC(NC(=O)N1c1cccc(C(=O)N3CCc4cc(C(F)(F)F)ccc4C3)c1)c1cc(-c3ccoc3)ccc1O2 (stereo not drawn) [Compound 28h, 8-(Furan-3-yl)-2-methyl-3-(3-(6-(trifluoromethyl)-1,2,3,4-tetrahydroisoquinoline-2-carbonyl)phenyl)-5,6-dihydro-2H-2,6-methanobenzo[g][1,3,5]oxadiazocin-4(3H)-one] |  |
| 1 to 10 µM |  | CC1(C)CN(C(=O)c2cccc(N3C(=O)NC4CC3(C)Oc3ccc(-c5ccoc5)cc34)c2)Cc2ccccc21 (stereo not drawn) [Compound 28i, 3-(3-(4,4-Dimethyl-1,2,3,4-tetrahydroisoquinoline-2-carbonyl)phenyl)-8-(furan-3-yl)-2-methyl-5,6-dihydro-2H-2,6-methanobenzo[g][1,3,5]oxadiazocin-4(3H)-one] |  |
| > 10 µM | excellent inhibitory ability | CC12CC(NC(=O)N1c1cccc(C(=O)N3CCc4ccccc4C3(C)C)c1)c1cc(-c3ccoc3)ccc1O2 (stereo not drawn) [Compound 28j, 3-(3-(1,1-Dimethyl-1,2,3,4-tetrahydroisoquinoline-2-carbonyl)phenyl)-8-(furan-3-yl)-2-methyl-5,6-dihydro-2H-2,6-methanobenzo[g][1,3,5]oxadiazocin-4(3H)-one] |  |
| > 10 µM |  | CC12CC(NC(=O)N1c1cccc(C(=O)N3CCc4ncccc4C3)c1)c1cc(-c3ccoc3)ccc1O2 (stereo not drawn) [Compound 28k, 8-(Furan-3-yl)-2-methyl-3-(3-(5,6,7,8-tetrahydro-1,6-naphthyridine-6-carbonyl)phenyl)-5,6-dihydro-2H-2,6-methanobenzo[g][1,3,5]oxadiazocin-4(3H)-one] |  |

Continued, molecule first:

| SMILES | IC50 (NOX2) | NOX2 inhibitory ability, verbal rating (NOX2) | scavenging of superoxide produced by xanthine/xanthine oxidase [1] |
| --- | --- | --- | --- |
| CC12CC(NC(=O)N1c1cccc(C(=O)N3CCc4ccccc4C3)c1)c1ccccc1O2 (racemic) [Compound 8a, 2-Methyl-3-(3-(1,2,3,4-tetrahydroisoquinoline-2-carbonyl)phenyl)-5,6-dihydro-2H-2,6-methanobenzo[g][1,3,5]oxadiazocin-4(3H)-one] | 1 to 10 µM |  | did not exhibit significant peroxide scavenging ability |
| CC12CC(NC(=O)N1c1cccc(C(=O)N3CCc4cc(F)ccc4C3)c1)c1cc(Br)ccc1O2 (stereo not drawn) [Compound 27b, 8-Bromo-3-(3-(6-fluoro-1,2,3,4-tetrahydroisoquinoline-2-carbonyl)phenyl)-2-methyl-5,6-dihydro-2H-2,6-methanobenzo[g][1,3,5]oxadiazocin-4(3H)-one] | 1 to 10 µM |  |  |
| CC12CC(NC(=O)N1c1cccc(C(=O)N3CCc4cccc(F)c4C3)c1)c1cc(Br)ccc1O2 (stereo not drawn) [Compound 27c, 8-Bromo-3-(3-(8-fluoro-1,2,3,4-tetrahydroisoquinoline-2-carbonyl)phenyl)-2-methyl-5,6-dihydro-2H-2,6-methanobenzo[g][1,3,5]oxadiazocin-4(3H)-one] | > 10 µM |  |  |
| CC12CC(NC(=O)N1c1cccc(C(=O)N3CCc4c(cccc4C(F)(F)F)C3)c1)c1cc(Br)ccc1O2 (stereo not drawn) [Compound 27e, 8-Bromo-2-methyl-3-(3-(5-(trifluoromethyl)-1,2,3,4-tetrahydroisoquinoline-2-carbonyl)phenyl)-5,6-dihydro-2H-2,6-methanobenzo[g][1,3,5]oxadiazocin-4(3H)-one] | 1 to 10 µM |  |  |
| CC12CC(NC(=O)N1c1cccc(C(=O)N3CCc4cc(C(F)(F)F)ccc4C3)c1)c1cc(Br)ccc1O2 (stereo not drawn) [Compound 27h, 8-Bromo-2-methyl-3-(3-(6-(trifluoromethyl)-1,2,3,4-tetrahydroisoquinoline-2-carbonyl)phenyl)-5,6-dihydro-2H-2,6-methanobenzo[g][1,3,5]oxadiazocin-4(3H)-one] | 1 to 10 µM |  |  |
